Measurements: patent US20110052534A1, “Imidazopyridazine Compounds for Treating Viral Infections” (priority 2009, published 2011)
pEC50: −log10 of the molar value. Where a name gives a salt, the structure may show the parent alone. Read-outs that look alike come from different tables or passages of the source.

Experiments:
[1] = tested on: HCV genotype 1a H77 NS3-5B bicistronic subgenomic replicon; test: microbe, parasite or virus in culture; format: cell-based; conditions: Hepatitis C virus; for pEC50: Table 2, luciferase activity after 48 hours, read-out: HCV Genotype 1A Replicon EC50
Excerpt: (§1) Two cell lines were used for screening of compounds for inhibiting HCV RNA replication (genoytype 1a and 1b). Genotype la replicon cells, are a Huh-7 derived cell line bearing the genotype 1a H77NS3-5B bicistronic subgenomic replicon. See, Blight, et al., J. Virol. (2003) 77(5): 3181-3190.
(§2) The genotype 1a replicon contains several adaptive mutations (NS4B Q31H, NS5A K68R, NS5A S232I), the luciferase gene and encodes for neomycin resistance. The genotype 1b replicon, also referred to as the ET replicon, is stably transfected with RNA transcripts harboring a I389luc-ubi-neo/NS3-3′/ET replicon with firefly luciferase-ubiquitin-neomycin phosphotransferase fusion protein and EMCV-IRES driven NS3-5B polyprotein containing the cell culture adaptive mutations (E1202G; T12801; K1846T) See, Kreiger, et al., Journal of Virology 75:4614-4624 (2001). Both cell lines were grown in DMEM, supplemented with 10% fetal calf serum, 2 mM Glutamine, Penicillin (100 IU/mL)/Streptomycin (100 μg/mL), 1×nonessential amino acids, and 250 μg/mL G418 (“Geneticin”). They were all available through Life Technologies (Bethesda, Md.). The cells were plated at 0.5×10^4 cells/well in 384 well plates containing compounds. The final concentration of compounds ranged between 0.1 nM to 50 μM and the final DMSO concentration of 0.5%.
(§3) Luciferase activity was measured 48 hours later by adding a Steady glo (Promega, Madison, Wis.). Percent inhibition of replication data was plotted relative to no compound control. Under the same condition, cytotoxicity of the compounds was determined using cell titer glo (Promega, Madison, Wis.). EC50 values were determined from a 10 point dose response curve using 2-4 fold serial dilutions for each compound, which spans a concentration range of at least a 1000 fold. Replicon EC50 values, the concentration of compound required to inhibit 50% of the assay response, were calculated by curve fitting data to the Hill equation, using a non-linear least-squares curve-fitting program. The software tested the data for quality and rejected compounds with high and low activity before fitting the equation below.
(§4) Analysis was performed using an XC50 module and BioAssay Enterprise (Cambridge Soft).

[2] = tested on: HCV genotype 1b replicon (ET replicon); test: microbe, parasite or virus in culture; format: cell-based; conditions: Hepatitis C virus; for pEC50: Table 2, luciferase activity after 48 hours, read-out: HCV Genotype 1B Replicon EC50
Excerpt: as §1, §2, §3, §4

| Structure (SMILES) | pEC50 [1] | pEC50 [2] | EC50 ([1]; 48 h, read-out: HCV Genotype 1A Replicon EC50 (nM)) | EC50 ([2]; 48 h, read-out: HCV Genotype 1B Replicon EC50 (nM)) |
| --- | --- | --- | --- | --- |
| CCCOc1ccc(-c2cc(C(C(=O)OC)n3cc4nc(-c5cccc(F)c5F)nc-4cn3)on2)c(C(F)(F)F)c1 (centres unmarked) [Compound 1, Methyl [2-(2,3-difluorophenyl)-5H-imidazo[4,5-d]pyridazin-5-yl]{3-[4-(propyloxy)-2-(trifluoromethyl)phenyl]-5-isoxazolyl}acetate] | 7.77 | 8.52 | – | – |
| CCCOc1ccc(-c2cc(C(C(=O)OCC)n3cc4nc(-c5cccc(F)c5F)nc-4cn3)on2)c(C(F)(F)F)c1 (centres unmarked) [Compound 2, Ethyl [2-(2,3-difluorophenyl)-5H-imidazo[4,5-d]pyridazin-5-yl]{3-[4-(propyloxy)-2-(trifluoromethyl)phenyl]-5-isoxazolyl}acetate] | 7.92 | 8.40 | – | – |
| CCCOC(=O)C(c1cc(-c2ccc(OCCC)cc2C(F)(F)F)no1)n1cc2nc(-c3cccc(F)c3F)nc-2cn1 (centres unmarked) [Compound 3, Propyl [2-(2,3-difluorophenyl)-5H-imidazo[4,5-d]pyridazin-5-yl]{3-[4-(propyloxy)-2-(trifluoromethyl)phenyl]-5-isoxazolyl}acetate] | 7.70 | 8.30 | – | – |
| CCCOc1ccc(-c2cc(C(C(=O)OC(C)C)n3cc4nc(-c5cccc(F)c5F)nc-4cn3)on2)c(C(F)(F)F)c1 (centres unmarked) [Compound 4, 1-Methylethyl [2-(2,3-difluorophenyl)-5H-imidazo[4,5-d]pyridazin-5-yl]{3-[4-(propyloxy)-2-(trifluoromethyl)phenyl]-5-isoxazolyl}acetate] | 7.52 | 8.00 | – | – |
| CCCOc1ccc(-c2cc(C(C(=O)OCCCO)n3cc4nc(-c5cccc(F)c5F)nc-4cn3)on2)c(C(F)(F)F)c1 (centres unmarked) [Compound 5, 3-Hydroxypropyl [2-(2,3-difluorophenyl)-5H-imidazo[4,5-d]pyridazin-5-yl]{3-[4-(propyloxy)-2-(trifluoromethyl)phenyl]-5-isoxazolyl}acetate] | 7.62 | 8.22 | – | – |
| CCCOc1ccc(-c2cc(C(C(=O)OC(C)(C)C)n3cc4nc(-c5cccc(F)c5F)nc-4cn3)on2)c(C(F)(F)F)c1 (centres unmarked) [Compound 6, 1,1-Dimethylethyl [2-(2,3-difluorophenyl)-5H-imidazo[4,5-d]pyridazin-5-yl]{3-[4-(propyloxy)-2-(trifluoromethyl)phenyl]-5-isoxazolyl}acetate] | 7.19 | 7.80 | – | – |
| CCCCOC(=O)C(c1cc(-c2ccc(OCCC)cc2C(F)(F)F)no1)n1cc2nc(-c3cccc(F)c3F)nc-2cn1 (centres unmarked) [Compound 7, Butyl [2-(2,3-difluorophenyl)-5H-imidazo[4,5-d]pyridazin-5-yl]{3-[4-(propyloxy)-2-(trifluoromethyl)phenyl]-5-isoxazolyl}acetate] | 7.96 | 8.30 | – | – |
| CCCOc1ccc(-c2cc(C(C(=O)OCCOCCO)n3cc4nc(-c5cccc(F)c5F)nc-4cn3)on2)c(C(F)(F)F)c1 (centres unmarked) [Compound 8, 2-[(2-Hydroxyethyl)oxy]ethyl [2-(2,3-difluorophenyl)-5H-imidazo[4,5-d]pyridazin-5-yl]{3-[4-(propyloxy)-2-(trifluoromethyl)phenyl]-5-isoxazolyl}acetate] | 8.15 | 8.52 | – | – |
| CCCOc1ccc(-c2cc(C(C(=O)OCCOCCOC)n3cc4nc(-c5cccc(F)c5F)nc-4cn3)on2)c(C(F)(F)F)c1 (centres unmarked) [Compound 9, 2-{[2-(Methyloxy)ethyl]oxy}ethyl [2-(2,3-difluorophenyl)-5H-imidazo[4,5-d]pyridazin-5-yl]{3-[4-(propyloxy)-2-(trifluoromethyl)phenyl]-5-isoxazolyl}acetate] | 8.70 | 8.40 | – | – |
| CCCOc1ccc(-c2cc(C(C(=O)OCCOCCOCCO)n3cc4nc(-c5cccc(F)c5F)nc-4cn3)on2)c(C(F)(F)F)c1 (centres unmarked) [Compound 11, 2-({2-[(2-Hydroxyethyl)oxy]ethyl}oxy)ethyl [2-(2,3-difluorophenyl)-5H-imidazo[4,5-d]pyridazin-5-yl]{3-[4-(propyloxy)-2-(trifluoromethyl)phenyl]-5-isoxazolyl}acetate] | 7.68 | 8.52 | – | – |
| CCCOc1ccc(-c2cc(C(C(=O)OCCOCCOCCOCCO)n3cc4nc(-c5cccc(F)c5F)nc-4cn3)on2)c(C(F)(F)F)c1 (centres unmarked) [Compound 12, 2-{[2-({2-[(2-Hydroxyethyl)oxy]ethyl}oxy)ethyl]oxy}ethyl [2-(2,3-difluorophenyl)-5H-imidazo[4,5-d]pyridazin-5-yl]{3-[4-(propyloxy)-2-(trifluoromethyl)phenyl]-5-isoxazolyl}acetate] | 7.77 | 9.00 | – | – |
| CCCOc1ccc(-c2cc(C(C(=O)OCCCOP(=O)(O)O)n3cc4nc(-c5cccc(F)c5F)nc-4cn3)on2)c(C(F)(F)F)c1 (centres unmarked) [Compound 14, 3-(Phosphonooxy)propyl [2-(2,3-difluorophenyl)-5H-imidazo[4,5-d]pyridazin-5-yl]{3-[4-(propyloxy)-2-(trifluoromethyl)phenyl]-5-isoxazolyl}acetate mono sodium salt] | – | – | 42 nM | 3 nM |
| CCCOc1ccc(-c2cc(C(C(=O)OCCCOS(=O)(=O)O)n3cc4nc(-c5cccc(F)c5F)nc-4cn3)on2)c(C(F)(F)F)c1 (centres unmarked) [Compound 15, 3-(Sulfooxy)propyl [2-(2,3-difluorophenyl)-5H-imidazo[4,5-d]pyridazin-5-yl]{3-[4-(propyloxy)-2-(trifluoromethyl)phenyl]-5-isoxazolyl}acetate sodium salt] | 7.85 | 8.70 | – | – |
| CCCOc1ccc(-c2cc(C(C(=O)OCCC(=O)O)n3cc4nc(-c5cccc(F)c5F)nc-4cn3)on2)c(C(F)(F)F)c1 (centres unmarked) [Compound 16, 3-[([2-(2,3-Difluorophenyl)-5H-imidazo[4,5-d]pyridazin-5-yl]{3-[4-(propyloxy)-2-(trifluoromethyl)phenyl]-5-isoxazolyl}acetyl)oxy]propanoic acid sodium salt] | 7.49 | 8.52 | – | – |
| CCCOc1ccc(-c2cc(C(C(=O)NC)n3cc4nc(-c5cccc(F)c5F)nc-4cn3)on2)c(C(F)(F)F)c1 (centres unmarked) [Compound 20, 2-[2-(2,3-Difluorophenyl)-5H-imidazo[4,5-d]pyridazin-5-yl]-N-methyl-2-{3-[4-(propyloxy)-2-(trifluoromethyl)phenyl]-5-isoxazolyl}acetamide] | 6.04 | 7.19 | – | – |
| CCCOc1ccc(-c2ccc(C(C(=O)OC)n3cc4nc(-c5cccc(F)c5F)nc-4cn3)cn2)c(C(F)(F)F)c1 (centres unmarked) [Compound 39, Methyl [2-(2,3-difluorophenyl)-5H-imidazo[4,5-d]pyridazin-5-yl]{6-[4-(propyloxy)-2-(trifluoromethyl)phenyl]-3-pyridinyl}acetate] | 5.03 | 6.10 | – | – |
| CCCOc1ccc(-c2ccc(C(C(=O)OCC)n3cc4nc(-c5cccc(F)c5F)nc-4cn3)cn2)c(C(F)(F)F)c1 (centres unmarked) [Compound 40, Ethyl [2-(2,3-difluorophenyl)-5H-imidazo[4,5-d]pyridazin-5-yl]{6-[4-(propyloxy)-2-(trifluoromethyl)phenyl]-3-pyridinyl}acetate] | – | 6.36 | – | – |
| CCCOC(=O)C(c1ccc(-c2ccc(OCCC)cc2C(F)(F)F)nc1)n1cc2nc(-c3cccc(F)c3F)nc-2cn1 (centres unmarked) [Compound 41, Propyl [2-(2,3-difluorophenyl)-5H-imidazo[4,5-d]pyridazin-5-yl]{6-[4-(propyloxy)-2-(trifluoromethyl)phenyl]-3-pyridinyl}acetate] | 6.05 | 5.57 | – | – |
| CCCOc1ccc(-c2ccc(C(C(=O)OC(C)C)n3cc4nc(-c5cccc(F)c5F)nc-4cn3)cn2)c(C(F)(F)F)c1 (centres unmarked) [Compound 42, 1-Methylethyl [2-(2,3-difluorophenyl)-5H-imidazo[4,5-d]pyridazin-5-yl]{6-[4-(propyloxy)-2-(trifluoromethyl)phenyl]-3-pyridinyl}acetate] | 6.01 | 6.29 | – | – |
| CCCOc1ccc(-c2ncc(C(C(=O)OC)n3cc4nc(-c5cccc(F)c5F)nc-4cn3)cn2)c(C(F)(F)F)c1 (centres unmarked) [Compound 58, Methyl [2-(2,3-difluorophenyl)-5H-imidazo[4,5-d]pyridazin-5-yl]{2-[4-(propyloxy)-2-(trifluoromethyl)phenyl]-5-pyrimidinyl}acetate] | 5.59 | 6.57 | – | – |
| CCCOc1ccc(-c2cc(C(C(=O)OCCCCN(C)C)n3cc4nc(-c5cccc(F)c5F)nc-4cn3)on2)c(C(F)(F)F)c1 (centres unmarked) [Compound 173, 4-(Dimethylamino)butyl [2-(2,3-difluorophenyl)-5H-imidazo[4,5-d]pyridazin-5-yl]{3-[4-(propyloxy)-2-(trifluoromethyl)phenyl]-5-isoxazolyl}acetate dihydrochloride] | 7.70 | 8.52 | – | – |
